Activity calls are given as the source filed them.
Legend:
[1] = target: Prothrombin (Homo sapiens, UniProt P00734); experiment: Thrombin 1536 HTS Dose Response Confirmation. [Related pubchem assays: 1046 (Thrombin 1536 HTS; hits were confirmed in this assay)]; assay type: functional
[2] = target: T1, Probable nicotinate-nucleotide adenylyltransferase (Staphylococcus aureus (strain N315), UniProt P65502); assay type: functional, Staphylococcus aureus subsp. aureus N315; settings: read-out: IC50_Mean;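 for IC50 Mean: confirmatory dose-response retesting of NadD inhibitor hits first found in an ultra-high-throughput screen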
T1 sequence (P65502 whole entry): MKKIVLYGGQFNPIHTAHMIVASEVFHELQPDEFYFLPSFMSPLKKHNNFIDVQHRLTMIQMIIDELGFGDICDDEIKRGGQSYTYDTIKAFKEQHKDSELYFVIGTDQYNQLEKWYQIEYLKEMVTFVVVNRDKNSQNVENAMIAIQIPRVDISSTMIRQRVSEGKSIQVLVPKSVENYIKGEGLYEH

[3] = HEp-2 cell cytotoxicity, dose response, cytotoxicity control for RSV inhibitor project, HTS (AID 2410); assay type: functional; settings: human respiratory syncytial virus
[4] = target: T1, Probable nicotinate-nucleotide adenylyltransferase; assay type: functional, Staphylococcus aureus subsp. aureus N315
[5] = target: T2, Protein RecA (Mycobacterium tuberculosis, UniProt P9WHJ3); experiment: Fluorescence Cell-Free Homogeneous Dose Retest to Identify Inhibitors of RecA-Intein Splicing Activity. [Related pubchem assays (depositor defined):AID2097, AID2223, AID489010, AID492950]; assay type: functional
T2 sequence (P9WHJ3 whole entry): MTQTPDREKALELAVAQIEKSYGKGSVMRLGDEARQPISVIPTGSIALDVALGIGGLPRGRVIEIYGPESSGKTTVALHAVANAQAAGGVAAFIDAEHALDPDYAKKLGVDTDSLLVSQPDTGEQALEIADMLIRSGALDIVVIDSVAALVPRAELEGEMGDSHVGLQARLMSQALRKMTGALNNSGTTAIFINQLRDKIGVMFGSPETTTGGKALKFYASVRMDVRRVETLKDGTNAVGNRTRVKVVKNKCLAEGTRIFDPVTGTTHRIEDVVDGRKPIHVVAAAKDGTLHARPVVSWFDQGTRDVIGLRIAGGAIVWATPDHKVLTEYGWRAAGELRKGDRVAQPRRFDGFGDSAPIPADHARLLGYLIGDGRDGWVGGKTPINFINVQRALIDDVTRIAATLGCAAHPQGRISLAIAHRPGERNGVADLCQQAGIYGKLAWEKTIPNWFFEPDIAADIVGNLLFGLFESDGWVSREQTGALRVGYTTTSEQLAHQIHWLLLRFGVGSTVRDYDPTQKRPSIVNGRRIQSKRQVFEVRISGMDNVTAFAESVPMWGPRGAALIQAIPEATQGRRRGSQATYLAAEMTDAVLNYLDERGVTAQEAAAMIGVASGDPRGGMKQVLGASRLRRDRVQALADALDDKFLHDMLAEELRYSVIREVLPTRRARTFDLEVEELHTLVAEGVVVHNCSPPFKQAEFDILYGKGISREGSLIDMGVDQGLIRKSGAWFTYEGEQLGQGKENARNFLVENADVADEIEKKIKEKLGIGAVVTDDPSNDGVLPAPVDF

[6] = target: T3, Replicative DNA helicase DnaB (Mycobacterium tuberculosis, UniProt P9WMR3); experiment: DnaB intein splicing inhibitors, dose response, biochemical, cell-free fluorescence (AID 449749); assay type: functional
T3 sequence (P9WMR3 whole entry): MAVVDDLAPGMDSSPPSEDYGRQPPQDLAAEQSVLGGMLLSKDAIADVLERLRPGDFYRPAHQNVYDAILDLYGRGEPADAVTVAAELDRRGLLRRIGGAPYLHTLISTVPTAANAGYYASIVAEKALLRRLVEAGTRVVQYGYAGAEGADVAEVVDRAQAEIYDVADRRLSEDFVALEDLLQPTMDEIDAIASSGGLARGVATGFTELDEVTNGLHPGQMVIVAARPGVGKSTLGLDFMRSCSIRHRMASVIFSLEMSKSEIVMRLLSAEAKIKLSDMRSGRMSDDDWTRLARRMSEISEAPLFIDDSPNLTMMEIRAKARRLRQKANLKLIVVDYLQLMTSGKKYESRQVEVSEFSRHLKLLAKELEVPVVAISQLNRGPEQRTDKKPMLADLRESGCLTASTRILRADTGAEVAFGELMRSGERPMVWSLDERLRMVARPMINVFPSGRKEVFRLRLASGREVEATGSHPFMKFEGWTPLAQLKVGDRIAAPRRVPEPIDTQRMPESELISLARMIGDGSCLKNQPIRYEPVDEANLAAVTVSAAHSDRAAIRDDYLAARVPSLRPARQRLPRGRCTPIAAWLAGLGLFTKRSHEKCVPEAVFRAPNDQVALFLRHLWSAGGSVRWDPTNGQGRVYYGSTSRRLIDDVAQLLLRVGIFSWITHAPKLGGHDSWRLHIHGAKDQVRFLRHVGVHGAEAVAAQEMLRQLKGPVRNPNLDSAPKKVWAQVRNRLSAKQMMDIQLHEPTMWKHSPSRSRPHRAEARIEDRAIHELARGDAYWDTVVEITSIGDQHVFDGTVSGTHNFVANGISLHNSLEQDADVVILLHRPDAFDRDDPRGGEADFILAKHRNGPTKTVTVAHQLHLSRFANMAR

[7] = target: T4, Apoptotic protease-activating factor 1 (Homo sapiens, UniProt O14727); assay type: functional
T4 sequence (O14727 whole entry): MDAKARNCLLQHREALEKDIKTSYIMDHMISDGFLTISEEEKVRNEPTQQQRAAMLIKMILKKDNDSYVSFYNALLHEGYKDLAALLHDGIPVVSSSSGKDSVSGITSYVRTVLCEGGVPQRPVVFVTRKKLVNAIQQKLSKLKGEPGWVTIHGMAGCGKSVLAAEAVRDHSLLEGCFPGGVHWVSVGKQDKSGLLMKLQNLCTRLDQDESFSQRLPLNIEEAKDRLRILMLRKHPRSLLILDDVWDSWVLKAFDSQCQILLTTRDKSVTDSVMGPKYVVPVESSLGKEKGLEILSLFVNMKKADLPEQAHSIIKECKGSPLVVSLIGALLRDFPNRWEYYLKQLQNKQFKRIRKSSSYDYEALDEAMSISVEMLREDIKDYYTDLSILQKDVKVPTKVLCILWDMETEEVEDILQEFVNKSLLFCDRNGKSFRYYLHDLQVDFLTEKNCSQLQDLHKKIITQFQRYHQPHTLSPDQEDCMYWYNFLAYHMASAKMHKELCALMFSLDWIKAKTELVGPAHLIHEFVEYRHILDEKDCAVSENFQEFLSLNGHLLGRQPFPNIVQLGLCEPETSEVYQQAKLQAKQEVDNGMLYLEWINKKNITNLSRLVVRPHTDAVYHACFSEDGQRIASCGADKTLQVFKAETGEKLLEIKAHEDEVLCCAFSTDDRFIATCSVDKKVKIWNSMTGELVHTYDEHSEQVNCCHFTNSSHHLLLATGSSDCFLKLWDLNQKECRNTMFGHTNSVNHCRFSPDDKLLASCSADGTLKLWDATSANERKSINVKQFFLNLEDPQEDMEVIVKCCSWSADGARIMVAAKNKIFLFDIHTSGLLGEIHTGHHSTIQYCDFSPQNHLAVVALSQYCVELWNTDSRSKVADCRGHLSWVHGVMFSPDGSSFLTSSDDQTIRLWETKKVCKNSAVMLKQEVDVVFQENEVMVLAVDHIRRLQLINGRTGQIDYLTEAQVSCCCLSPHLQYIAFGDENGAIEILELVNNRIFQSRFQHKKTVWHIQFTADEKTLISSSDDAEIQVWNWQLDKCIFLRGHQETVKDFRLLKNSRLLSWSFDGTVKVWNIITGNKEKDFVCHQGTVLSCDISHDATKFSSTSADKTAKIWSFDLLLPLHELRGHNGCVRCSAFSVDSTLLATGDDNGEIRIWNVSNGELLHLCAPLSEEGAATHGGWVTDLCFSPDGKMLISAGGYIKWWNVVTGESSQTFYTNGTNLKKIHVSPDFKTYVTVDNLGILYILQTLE

[8] = target: Glucose-6-phosphate 1-dehydrogenase (Homo sapiens, UniProt P11413); experiment: human G6PD enzyme inhibitors, dose response, selectivity assay for P. falciparum G6PD inhibitor project, biochemical, fluorescence (AID 504792); assay type: functional
Sequence of Glucose-6-phosphate 1-dehydrogenase (P11413 whole entry): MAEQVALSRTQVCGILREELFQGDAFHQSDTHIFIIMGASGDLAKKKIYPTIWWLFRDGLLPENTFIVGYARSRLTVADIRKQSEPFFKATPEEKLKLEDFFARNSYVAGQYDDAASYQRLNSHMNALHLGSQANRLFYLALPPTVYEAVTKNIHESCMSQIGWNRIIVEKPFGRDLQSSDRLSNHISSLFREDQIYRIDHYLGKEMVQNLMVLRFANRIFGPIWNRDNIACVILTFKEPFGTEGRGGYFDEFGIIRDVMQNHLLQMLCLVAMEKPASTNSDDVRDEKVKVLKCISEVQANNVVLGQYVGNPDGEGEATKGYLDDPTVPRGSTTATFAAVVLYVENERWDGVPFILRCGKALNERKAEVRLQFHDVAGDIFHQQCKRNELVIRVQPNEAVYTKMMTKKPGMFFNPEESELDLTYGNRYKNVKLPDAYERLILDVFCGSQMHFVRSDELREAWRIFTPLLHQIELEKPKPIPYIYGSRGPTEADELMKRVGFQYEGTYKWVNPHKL

[9] = inhibitors of firefly luciferase expression or activity, dose response, H4 neuroglioma cells, luminescence (AID 1990); assay type: functional, cell-based
[10] = HEK293 cell cytotoxicity, dose response, cytotoxicity control, plate reader, cherry-picked samples (AID 743446); assay type: functional, cell-based
[11] = LGR2 antagonists, dose response, cell-based, HEK293, CRE-luciferase reporter, cherry pick, set 2 (AID 743343); assay type: functional;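 note: transfected cells were stimulated with diluted bursicon conditioned medium after compound addition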
[12] = inhibitors of SNCA 5'UTR-driven reporter translation, confirmation, H4 neuroglioma cells, luminescence (AID 1988); assay type: functional, cell-based
[13] = test system: HEK293; experiment: inhibitors of LMP1-driven NF-kB reporter, dose response, cell-based, HEK293, luciferase, cherry-pick (AID 588343); assay type: functional; settings: Homo sapiens
[14] = Luminescence Cell-Based Dose Response HTS to Identify Inhibitors of 5'UTR Stem-Loop Driven Prion Protein mRNA Translation in H4 Neuroglioblastoma Cells. [Related pubchem assays: 1827 (Project Summary), 1813 (Primary HTS)]; assay type: functional
[15] = MC4R antagonists, dose response, counter-screen for LGR2 antagonist project, cell-based, plate reader, cherry pick (AID 743444); assay type: functional;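 note: transfected HEK 293 cells stimulated with alpha-MSH peptide; potency of inhibitors of the alpha-MSH evoked signal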
[16] = test system: P388/ADR; experiment: cells; assay type: functional; settings: Mus musculus
[17] = test system: P388; experiment: cells; assay type: functional; settings: Mus musculus
[18] = test system: SN12K1; experiment: cells; assay type: functional; settings: Homo sapiens
[19] = target: Disintegrin and metalloproteinase domain-containing protein 17 (Homo sapiens, UniProt P78536); experiment: exosite inhibitors of ADAM17, dose response, biochemical (AID 743260)
Sequence of Disintegrin and metalloproteinase domain-containing protein 17 (P78536 whole entry, the tested form may be a part): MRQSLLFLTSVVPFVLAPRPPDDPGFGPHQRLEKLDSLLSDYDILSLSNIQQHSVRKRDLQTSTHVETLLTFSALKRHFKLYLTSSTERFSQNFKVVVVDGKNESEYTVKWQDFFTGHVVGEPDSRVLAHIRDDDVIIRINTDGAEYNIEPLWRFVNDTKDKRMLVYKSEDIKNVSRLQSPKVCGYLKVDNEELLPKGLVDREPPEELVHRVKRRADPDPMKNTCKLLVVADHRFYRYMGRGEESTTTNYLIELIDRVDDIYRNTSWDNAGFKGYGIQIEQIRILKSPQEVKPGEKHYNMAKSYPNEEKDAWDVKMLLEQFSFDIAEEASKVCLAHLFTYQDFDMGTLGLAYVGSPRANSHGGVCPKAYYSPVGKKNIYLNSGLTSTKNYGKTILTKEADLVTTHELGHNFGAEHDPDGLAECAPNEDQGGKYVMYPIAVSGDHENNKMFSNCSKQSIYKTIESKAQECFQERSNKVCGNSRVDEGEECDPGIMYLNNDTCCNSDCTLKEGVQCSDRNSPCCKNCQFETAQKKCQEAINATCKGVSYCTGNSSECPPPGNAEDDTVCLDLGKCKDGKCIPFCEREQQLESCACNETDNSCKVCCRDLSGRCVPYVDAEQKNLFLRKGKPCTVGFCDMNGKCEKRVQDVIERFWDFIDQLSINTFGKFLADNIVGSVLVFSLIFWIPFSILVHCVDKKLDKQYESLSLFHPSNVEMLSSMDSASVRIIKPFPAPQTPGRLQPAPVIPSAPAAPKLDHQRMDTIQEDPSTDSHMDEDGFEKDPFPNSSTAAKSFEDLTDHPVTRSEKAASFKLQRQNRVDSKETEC

[20] = target: T5, Heat shock factor protein 1 (Mus musculus, UniProt P38532); experiment: HSF1 potentiators in luciferase reporter cells, confirmation, cell-based, NIH3T3, luminescence, dose retest (AID 435004); assay type: functional;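 note: stress induced by proteasome inhibitor MG132 added 30 min after compound; luciferase reporter driven by HSF1 response element in NIH3T3 cells; actives raise luminescence as potentiators of the MG132 stress response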
T5 sequence (P38532 whole entry): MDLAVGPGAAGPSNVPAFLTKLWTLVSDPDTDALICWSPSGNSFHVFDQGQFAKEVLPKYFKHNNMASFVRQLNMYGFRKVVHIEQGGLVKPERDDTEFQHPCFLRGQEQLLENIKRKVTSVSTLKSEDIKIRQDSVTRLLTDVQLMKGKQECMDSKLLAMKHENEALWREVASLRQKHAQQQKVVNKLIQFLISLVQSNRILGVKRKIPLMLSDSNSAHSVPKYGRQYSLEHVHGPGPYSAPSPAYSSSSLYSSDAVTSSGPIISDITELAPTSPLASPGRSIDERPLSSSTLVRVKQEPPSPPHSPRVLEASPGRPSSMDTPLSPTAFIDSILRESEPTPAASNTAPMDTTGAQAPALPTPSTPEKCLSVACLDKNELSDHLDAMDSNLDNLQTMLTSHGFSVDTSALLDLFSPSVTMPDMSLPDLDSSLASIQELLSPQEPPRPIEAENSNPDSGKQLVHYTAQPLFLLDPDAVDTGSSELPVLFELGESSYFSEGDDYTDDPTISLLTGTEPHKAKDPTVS

Cn1c(SCC(=O)N2c3ccccc3CCc3ccccc32)nnc1-c1cc2ccccc2cc1O
IC50 [1]: > 50 µM (not active) | IC50 [2]: 24.5 µM (active) | CC50 [3]: > 50 µM (active) | IC50 [4]: 7.15 µM (active)

CC(=O)Nc1ccc(S(=O)(=O)[N-]C2=C(n3cc[n+](-c4ccccn4)c3)C(=O)c3ccccc3C2=O)cc1
EC50 [5]: 3.46 µM (active) | AC50 [6]: 3.92 µM (active) | IC50 [7]: 6.71 µM (active) | IC50 [8]: > 80 µM (inactive)

Cc1csc(SCC(=O)NCc2ccccc2Cl)n1
IC50 [1]: > 50 µM (not active)

COc1ccc(OCC(=O)Nc2cccc3ncccc23)cc1
IC50 [1]: > 50 µM (not active)

Cc1ccc(C(=O)Nc2ccc3c(c2)OCCO3)c(Cl)c1
EC50 [9]: 6.61 µM (inconclusive) | AC50 [10]: > 52 µM (inactive) | AC50 [11]: 3.65 µM (active) | EC50 [12]: 3.89 µM (active) | AC50 [13]: 1.27 µM (active) | EC50 [14]: 5.14 µM (active) | AC50 [15]: 3.76 µM (active)

CSCCC(NC(=O)C(Cc1ccccc1)NC(=O)CNC(=O)CNC(=O)C(N)Cc1ccc(O)cc1)C(=O)O (configuration not stated)
GI50 [16]: > 100 µM (inactive) | GI50 [17]: > 100 µM (inactive) | GI50 [18]: > 100 µM (inactive)

CCCNC1=C(C)C(=O)C2=C(C1=O)[C@H](COC(N)=O)[C@]1(OC)[C@@H]3N[C@@H]3CN21
GI50 [16]: 4.66 µM (inactive) | GI50 [17]: 0.32 µM (active) | GI50 [18]: 4.36 µM (inactive)

CC(=O)Nc1cccc(/N=N/N(C)C)c1
GI50 [16]: > 100 µM (inactive) | GI50 [17]: > 100 µM (inactive) | GI50 [18]: > 57.5 µM (inactive)

Cc1ccc(C(C)(C)C[P+](C)(c2ccccc2)c2ccccc2)cc1
GI50 [16]: > 100 µM (inactive) | GI50 [17]: 0.508 µM (active) | GI50 [18]: 6.49 µM (inactive)

COC(=O)c1cccc(Cn2c(Cl)c(/C=N/Nc3ccccc3C)sc2=O)c1
IC50 [19]: > 69.5 µM (inactive) | EC50 [20]: 61.2 µM (active)

COc1ccc2c(c1)c1c(C)c3cnccc3c(C)c1n2CCCN
GI50 [16]: 0.185 µM (active) | GI50 [17]: 0.0505 µM (active) | GI50 [18]: 0.102 µM (active)

CCCC(O)C(NC(=O)CCl)C(=O)O (configuration not stated)
GI50 [16]: > 100 µM (inactive) | GI50 [17]: > 100 µM (inactive) | GI50 [18]: > 100 µM (inactive)
